The text below walks through data of patent US20230227449A1, “AMIDOPYRIMIDONE DERIVATIVES” (Hoffmann-La Roche Inc., priority 2020, published 2023).

Some results are limits rather than exact numbers.

Recombinant human Mat2a, sequence (P31153 whole entry): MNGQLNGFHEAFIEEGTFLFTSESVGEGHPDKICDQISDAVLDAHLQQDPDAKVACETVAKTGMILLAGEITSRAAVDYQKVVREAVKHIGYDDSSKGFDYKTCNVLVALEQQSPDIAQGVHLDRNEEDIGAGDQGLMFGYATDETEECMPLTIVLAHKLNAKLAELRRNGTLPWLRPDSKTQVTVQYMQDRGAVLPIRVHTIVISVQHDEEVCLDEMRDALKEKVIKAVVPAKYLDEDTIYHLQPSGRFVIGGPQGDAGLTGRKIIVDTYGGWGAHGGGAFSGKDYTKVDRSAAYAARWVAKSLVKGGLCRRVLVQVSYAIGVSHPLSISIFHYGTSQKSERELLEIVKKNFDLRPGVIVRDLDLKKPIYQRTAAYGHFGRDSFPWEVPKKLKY

This assay concerns the target Recombinant human Mat2a (Homo sapiens, UniProt P31153). Nature of the assay: Determination of Mat2A activity (384 well absorbance-based assay, Biomol Green). Particulars: 12.5 nM Mat2A, 100 μM ATP and Methionine, 2% DMSO, 120 minutes at RT, absorbance at 635 nm. The format is biochemical. How it is done: Determination of Mat2A activity
Measurement of Mat2A inhibition is performed in 384 well format absorbance-based assay. Recombinant human Mat2a (12.5 nM) and serial diluted compounds in DMSO (range of concentrations from […] to 508 pM) or controls (DMSO) are incubated for 15 minutes at room temperature (RT) in assay buffer containing 50 mM HEPES pH 7.5, 50 mM KCl, 50 mM MgCl2, 0.01% Tween 20 and 10 mM DTT. The reaction is initiated by the addition of the combined substrates ATP and Methionine, each at a final concentration of 100 μM. Final assay condition are 12.5 nM Mat2A, 100 μM ATP and Methionine Substrates and 2% DMSO. After 120 minutes of incubation at RT, the reaction is stopped by the addition of Biomol Green. The absorbance signal is measured at λ=635 nm with a multiplate reader (BMG Pherastar reader or equivalent) after 30 min of equilibration at RT.
In general, IC50 refers to the midpoint of a concentration-inhibition curve. For `Nc1nc(=O)n([C@@H]2CCCOC2)c2nc([C@@H]3C[C@H]3F)ccc12` (mixture of isomers) [Example 49, 4-amino-7-[(1SR,2RS)-2-fluorocyclopropyl]-1-[(3R)-tetrahydropyran-3-yl]pyrido[2,3-d]pyrimidin-2-one], the IC50 turned out to be 14 nM.
The value for `Cc1ncccc1-n1c(=O)nc(N)c2ccc([C@@H]3C[C@H]3C)nc21` (racemic) [Example 23, 4-amino-7-((1RS,2RS)-2-methylcyclopropyl)-1-(2-methylpyridin-3-yl)pyrido[2,3-d]pyrimidin-2(1H)-one] was 18 nM; that for `Nc1nc(=O)n([C@H]2CCC[C@H]2O)c2nc(C3CC3)ccc12` (racemic) [Example 24, 4-amino-7-cyclopropyl-1-((1SR,2RS)-2-hydroxycyclopentyl)pyrido[2,3-d]pyrimidin-2(1H)-one] was 17 nM.
As to `C[C@@H]1OCC[C@H]1n1c(=O)nc(N)c2ccc(C3CC3)nc21` (racemic) [Example 30, 4-amino-7-cyclopropyl-1-[rac-(2RS,3SR)-2-methyloxolan-3-yl]pyrido[2,3-d]pyrimidin-2-one], the IC50 stood at 22 nM.
Then `Cc1ncccc1-n1c(=O)nc(N)c2ccc([C@H]3C[C@@H]3F)nc21` (racemic) [Example 36, 4-amino-7-[(1RS,2SR)-2-fluorocyclopropyl]-1-(2-methyl-3-pyridyl)pyrido[2,3-d]pyrimidin-2-one], with less than 13 nM; and `Cn1nccc1-n1c(=O)nc(N)c2ccc(N3C[C@H]4CC[C@@H]3C4)nc21` (racemic) [Example 57, 4-amino-7-[(1SR,4RS)-3-azabicyclo[2.2.1]heptan-3-yl]-1-(2-methylpyrazol-3-yl)pyrido[2,3-d]pyrimidin-2-one], with 150 nM; and `C[C@@H]1OCCC[C@@H]1n1c(=O)nc(N)c2ccc(C3CC3)nc21` (racemic) [Example 121, 4-amino-7-cyclopropyl-1-[(2SR,3SR)-2-methyltetrahydropyran-3-yl]pyrido[2,3-d]pyrimidin-2-one], with 14 nM.
Then `C[C@@H]1OCC[C@@H]1n1c(=O)nc(N)c2ccc(C3CC3)nc21` (relative stereo) [Example 89, 4-amino-7-cyclopropyl-1-((cis)-2-methyltetrahydrofuran-3-yl)pyrido[2,3-d]pyrimidin-2(1H)-one], with 53 nM.
Turning to `Cc1c(F)cccc1-n1c(=O)nc(N)c2ccc(C3CC3)nc21` (single isomer, unassigned) [Example 103, (+)-4-amino-7-cyclopropyl-1-(3-fluoro-2-methylphenyl)pyrido[2,3-d]pyrimidin-2 (1H)-one], the IC50 was less than 13 nM.
In the case of `Cc1c(F)cccc1-n1c(=O)nc(N)c2ccc(C3CC3)nc21` (single isomer, unassigned) [Example 104, (−)-4-amino-7-cyclopropyl-1-(3-fluoro-2-methylphenyl)pyrido[2,3-d]pyrimidin-2 (1H)-one], the IC50 turned out to be 110 nM.
Take `Nc1nc(=O)n(-c2ccccc2Cl)c2nc(C3CC3)ccc12` (single isomer, unassigned) [Example 114, (+)-4-amino-1-(2-chlorophenyl)-7-cyclopropylpyrido[2,3-d]pyrimidin-2 (1H)-one]: the IC50 is less than 13 nM.
Then `Nc1nc(=O)n(-c2ccccc2Cl)c2nc(C3CC3)ccc12` (single isomer, unassigned) [Example 115, (−)-4-amino-1-(2-chlorophenyl)-7-cyclopropylpyrido[2,3-d]pyrimidin-2 (1H)-one], with 72 nM.
In the case of `Nc1nc(=O)n(-c2cccc(F)c2Cl)c2nc(C3CC3)ccc12` (single isomer, unassigned) [Example 116, (+)-4-amino-1-(2-chloro-3-fluorophenyl)-7-cyclopropylpyrido[2,3-d]pyrimidin-2 (1H)-one], the IC50 was less than 13 nM.
Turning to `Nc1nc(=O)n(-c2cccc(F)c2Cl)c2nc(C3CC3)ccc12` (single isomer, unassigned) [Example 117, (−)-4-amino-1-(2-chloro-3-fluorophenyl)-7-cyclopropylpyrido[2,3-d]pyrimidin-2 (1H)-one], the half-maximal inhibitory concentration (IC50) amounted to 78 nM.
The value for `Nc1nc(=O)n(-c2cccnc2Cl)c2nc(C3CC3)ccc12` (single isomer, unassigned) [Example 135, (+)-4-amino-1-(2-chloropyridin-3-yl)-7-cyclopropylpyrido[2,3-d]pyrimidin-2 (1H)-one] was less than 13 nM.
Regarding `Nc1nc(=O)n(-c2cccnc2Cl)c2nc(C3CC3)ccc12` (single isomer, unassigned) [Example 136, (−)-4-amino-1-(2-chloropyridin-3-yl)-7-cyclopropylpyrido[2,3-d]pyrimidin-2 (1H)-one], the concentration for half-maximal inhibition (IC50) stood at 150 nM.
The value for `Cc1c(C#N)cccc1-n1c(=O)nc(N)c2ccc(C3CC3)nc21` (single isomer, unassigned) [Example 145, (+)-3-(4-amino-7-cyclopropyl-2-oxopyrido[2,3-d]pyrimidin-1 (2H)-yl)-2-methylbenzonitrile] was less than 13 nM; that for `Cc1c(C#N)cccc1-n1c(=O)nc(N)c2ccc(C3CC3)nc21` (single isomer, unassigned) [Example 146, (−)-3-(4-amino-7-cyclopropyl-2-oxopyrido[2,3-d]pyrimidin-1 (2H)-yl)-2-methylbenzonitrile] was 58 nM.
Then `Cc1ccccc1-n1c(=O)nc(N)c2ccc(C3CC3)nc21` [Example 1, 4-amino-7-cyclopropyl-1-(o-tolyl)pyrido[2,3-d]pyrimidin-2(1H)-one], with less than 13 nM; and `COc1ccccc1-n1c(=O)nc(N)c2ccc(C3CC3)nc21` [Example 2, 4-amino-7-cyclopropyl-1-(2-methoxyphenyl)pyrido[2,3-d]pyrimidin-2(1H)-one], with less than 13 nM; and `Cc1ccccc1-n1c(=O)nc(N)c2ccc(C(C)(C)C)nc21` [Example 3, 4-amino-7-(tert-butyl)-1-(o-tolyl)pyrido[2,3-d]pyrimidin-2(1H)-one], with 22 nM.
As to `COc1ccccc1-n1c(=O)nc(N)c2ccc(-c3ccccc3)nc21` [Example 4, 4-amino-1-(2-methoxyphenyl)-7-phenylpyrido[2,3-d]pyrimidin-2(1H)-one], the IC50 amounted to 31 nM.
Then `Cc1ccccc1-n1c(=O)nc(N)c2ccc(N3CC(F)(F)C3)nc21` [Example 5, 4-amino-7-(3,3-difluoroazetidin-1-yl)-1-(o-tolyl)pyrido[2,3-d]pyrimidin-2(1H)-one], with 22 nM; and `Nc1nc(=O)n(C2CCOC2)c2nc(C3CC3)ccc12` (stereo not drawn) [Example 6, 4-amino-7-cyclopropyl-1-(tetrahydrofuran-3-yl)pyrido[2,3-d]pyrimidin-2(1H)-one], with 28 nM.
Then `Cc1ncccc1-n1c(=O)nc(N)c2ccc(C3CC3)nc21` [Example 7, 4-amino-7-cyclopropyl-1-(2-methylpyridin-3-yl)pyrido[2,3-d]pyrimidin-2(1H)-one], with less than 13 nM; and `Cc1ccccc1-n1c(=O)nc(N)c2ccc(C3CC3)cc21` [Example 8, 4-amino-7-cyclopropyl-1-(o-tolyl)quinazolin-2 (1H)-one], with less than 13 nM.
As for `COc1ncccc1-n1c(=O)nc(N)c2ccc(C3CC3)nc21` [Example 9, 4-amino-7-cyclopropyl-1-(2-methoxypyridin-3-yl)pyrido[2,3-d]pyrimidin-2(1H)-one], the IC50 was less than 13 nM.
Then `Cc1ncccc1-n1c(=O)nc(N)c2cc(F)c(C3CC3)nc21` [Example 10, 4-amino-7-cyclopropyl-6-fluoro-1-(2-methylpyridin-3-yl)pyrido[2,3-d]pyrimidin-2(1H)-one], with less than 13 nM.
Take `N#Cc1ncccc1-n1c(=O)nc(N)c2ccc(C3CC3)nc21` [Example 11, 3-(4-amino-7-cyclopropyl-2-oxopyrido[2,3-d]pyrimidin-1(2H)-yl)picolinonitrile]: the IC50 is less than 13 nM.
As to `Nc1nc(=O)n(C2CCCOC2)c2nc(C3CC3)ccc12` (stereo not drawn) [Example 12, 4-amino-7-cyclopropyl-1-(oxan-3-yl)pyrido[2,3-d]pyrimidin-2-one], the IC50 was less than 13 nM.
Then `CC(C1CCOC1)n1c(=O)nc(N)c2ccc(C3CC3)nc21` (stereo not drawn) [Example 13, 4-amino-7-cyclopropyl-1-[1-(oxolan-3-yl)ethyl]pyrido[2,3-d]pyrimidin-2-one], with 23 nM.
The value for `COc1c(F)cccc1-n1c(=O)nc(N)c2ccc(C3CC3)nc21` [Example 14, 4-amino-7-cyclopropyl-1-(3-fluoro-2-methoxyphenyl)pyrido[2,3-d]pyrimidin-2(1H)-one] was 27 nM.
`Cc1c(C#N)cccc1-n1c(=O)nc(N)c2ccc(C3CC3)nc21` [Example 15, 3-(4-amino-7-cyclopropyl-2-oxopyrido[2,3-d]pyrimidin-1(2H)-yl)-2-methylbenzonitrile]: the IC50 is less than 13 nM.
Take `Cc1ncccc1-n1c(=O)nc(N)c2ccc(C(C)C)nc21` [Example 16, 4-amino-1-(2-methylpyridin-3-yl)-7-propan-2-ylpyrido[2,3-d]pyrimidin-2-one]: the IC50 was less than 13 nM.
Then `Nc1nc(=O)n(-c2cccc3c2CCO3)c2nc(C3CC3)ccc12` [Example 17, 4-amino-7-cyclopropyl-1-(2,3-dihydrobenzofuran-4-yl)pyrido[2,3-d]pyrimidin-2(1H)-one], with 95 nM; and `Cc1ncccc1-n1c(=O)nc(N)c2cc(Cl)c(C3CC3)nc21` [Example 18, 4-amino-6-chloro-7-cyclopropyl-1-(2-methylpyridin-3-yl)pyrido[2,3-d]pyrimidin-2(1H)-one], with less than 13 nM.
